Assay results published in publication PMC5086599 (Viruses, 2016).
Read-outs that look alike come from different tables or passages of the source.

Columns and labels:
[1] = system: HIV-1 WT virus (HXB2) in Hela P4/R5 cells; test: HIV-1 single cycle replication assay, WT virus; assay type: cell-based; settings: read-out: EC50 against WT virus
[2] = system: HIV-1 K103N mutant virus in Hela P4/R5 cells; test: HIV-1 single cycle replication assay, K103N mutant virus; assay type: cell-based
[3] = system: HIV-1 K103N/Y188F mutant virus in Hela P4/R5 cells; test: HIV-1 single cycle replication assay, K103N/Y188F mutant virus; assay type: cell-based
[4] = system: HIV-1 K103A mutant virus in Hela P4/R5 cells; test: HIV-1 single cycle replication assay, K103A mutant virus; assay type: cell-based
[5] = system: HIV-1 K103E mutant virus in Hela P4/R5 cells; test: HIV-1 single cycle replication assay, K103E mutant virus; assay type: cell-based
[6] = system: HIV-1 Y181C mutant virus in Hela P4/R5 cells; test: HIV-1 single cycle replication assay, Y181C mutant virus; assay type: cell-based
[7] = system: HIV-1 Y188L mutant virus in Hela P4/R5 cells; test: HIV-1 single cycle replication assay, Y188L mutant virus; assay type: cell-based
[8] = system: HIV-1 Y181F mutant virus in Hela P4/R5 cells; test: HIV-1 single cycle replication assay, Y181F mutant virus; assay type: cell-based
[9] = system: HIV-1 Y188F mutant virus in Hela P4/R5 cells; test: HIV-1 single cycle replication assay, Y188F mutant virus; assay type: cell-based
[10] = system: HIV-1 Y181F/Y188F mutant virus in Hela P4/R5 cells; test: HIV-1 single cycle replication assay, Y181F/Y188F mutant virus; assay type: cell-based
HIV-1 WT RT (non-bio-RT) = system: HIV-1 WT RT (non-bio-RT); design: method as in earlier work; settings: reported previously, read-out: Inhibitory potency IC50 versus WT RT (non-biotinylated); cited from earlier work
[11] = Human immunodeficiency virus 1, read-out: EC50 against K103N mutant virus
[12] = Human immunodeficiency virus 1, read-out: EC50 against K103N/Y188F mutant virus
[13] = Human immunodeficiency virus 1, read-out: EC50 against K103A mutant virus
[14] = Human immunodeficiency virus 1, read-out: EC50 against K103E mutant virus
[15] = Human immunodeficiency virus 1, read-out: EC50 against Y181C mutant virus
[16] = Human immunodeficiency virus 1, read-out: EC50 against Y188L mutant virus
[17] = Human immunodeficiency virus 1, read-out: EC50 against Y181F mutant virus
[18] = Human immunodeficiency virus 1, read-out: EC50 against Y188F mutant virus
[19] = Human immunodeficiency virus 1, read-out: EC50 against Y181F/Y188F mutant virus
[20] = Human immunodeficiency virus 1, HXB2, single-cycle replication, Hela P4/R5 cells, 48 h, mean ± SD

CC(C)Nc1cccnc1N1CCN(C(=O)c2cc3cc(NS(C)(=O)=O)ccc3[nH]2)CC1 [DLV, delavirdine]
EC50 ([1]; Human immunodeficiency virus 1, HXB2, 48 h): 26 ± 7 nM | EC50 [2, 11]: 2600 ± 346 nM | EC50 [3, 12]: 1500 ± 43 nM | EC50 [4, 13]: 38 ± 12 nM | EC50 [5, 14]: 64 ± 7 nM | EC50 [6, 15]: 1150 ± 301 nM | EC50 [7, 16]: 913 ± 90 nM | EC50 [8, 17]: 8.6 ± 1.3 nM | EC50 [9, 18]: 14 ± 4 nM | EC50 [10, 19]: 4.1 ± 0.12 nM

O=C1Nc2ccc(Cl)cc2[C@@](C#CC2CC2)(C(F)(F)F)O1 [EFV, efavirenz]
EC50 [1, 20]: 1.2 nM | EC50 [2, 11]: 69 ± 5.7 nM | EC50 [3, 12]: 40 ± 8.1 nM | EC50 [4, 13]: 2 ± 0.2 nM | EC50 [5, 14]: 0.9 ± 0.3 nM | EC50 [6, 15]: 1.4 ± 0.1 nM | EC50 [7, 16]: 639 ± 63 nM | EC50 [8, 17]: 0.5 ± 0.07 nM | EC50 [9, 18]: 0.3 ± 0.05 nM | Y188F mutant virus more sensitive to inhibition than WT virus ([9]; fold more sensitive than WT virus): ~ 4 fold | EC50 [10, 19]: 0.4 ± 0.1 nM | IC50 (HIV-1 WT RT (non-bio-RT)): 0.42 nM

Cc1ccnc2c1NC(=O)c1cccnc1N2C1CC1 [NVP, nevirapine]
EC50 [1, 20]: 95 ± 6 nM | EC50 ([2]; Human immunodeficiency virus 1, single-cycle replication, Hela P4/R5 cells, mean ± SD, read-out: EC50 against K103N mutant virus): 5080 ± 1690 nM | EC50 ([3]; Human immunodeficiency virus 1, single-cycle replication, Hela P4/R5 cells, mean ± SD, read-out: EC50 against K103N/Y188F mutant virus): 14500 nM | EC50 ([4]; Human immunodeficiency virus 1, single-cycle replication, Hela P4/R5 cells, mean ± SD, read-out: EC50 against K103A mutant virus): 216 ± 51 nM | EC50 ([5]; Human immunodeficiency virus 1, single-cycle replication, Hela P4/R5 cells, mean ± SD, read-out: EC50 against K103E mutant virus): 65 ± 27 nM | EC50 ([6]; Human immunodeficiency virus 1, single-cycle replication, Hela P4/R5 cells, mean ± SD, read-out: EC50 against Y181C mutant virus): 2270 ± 197 nM | EC50 ([7]; Human immunodeficiency virus 1, single-cycle replication, Hela P4/R5 cells, mean ± SD, read-out: EC50 against Y188L mutant virus): > 25000 nM | EC50 ([8]; Human immunodeficiency virus 1, single-cycle replication, Hela P4/R5 cells, mean ± SD, read-out: EC50 against Y181F mutant virus): 37 ± 7 nM | EC50 ([9]; Human immunodeficiency virus 1, single-cycle replication, Hela P4/R5 cells, mean ± SD, read-out: EC50 against Y188F mutant virus): 62 ± 11 nM | EC50 ([10]; Human immunodeficiency virus 1, single-cycle replication, Hela P4/R5 cells, mean ± SD, read-out: EC50 against Y181F/Y188F mutant virus): 34 ± 2.5 nM | IC50 (HIV-1 WT RT (non-bio-RT)): 137 nM
